Columns and labels:
[1] = molecular target: T1, Melanocortin receptor 4 (Homo sapiens, UniProt P32245); test: Maximum percentage of cAMP accumulation relative to alpha-MSH at human melanocortin 4 receptor at 10 uM; format: functional
[2] = molecular target: T1, Melanocortin receptor 4; test: Inhibition of [125I]-NDP- alpha-MSH binding to human melanocortin 4 receptor expressed in CHO cells; format: cell-based
[3] = molecular target: T1, Melanocortin receptor 4; test: Maximum percentage of cAMP accumulation compared to alpha-MSH at human melanocortin 4 receptor at 10 uM; format: functional
[4] = molecular target: T1, Melanocortin receptor 4; test: Effective concentration at human melanocortin 4 receptor in cAMP release assay; format: functional

T1 sequence (P32245 whole entry): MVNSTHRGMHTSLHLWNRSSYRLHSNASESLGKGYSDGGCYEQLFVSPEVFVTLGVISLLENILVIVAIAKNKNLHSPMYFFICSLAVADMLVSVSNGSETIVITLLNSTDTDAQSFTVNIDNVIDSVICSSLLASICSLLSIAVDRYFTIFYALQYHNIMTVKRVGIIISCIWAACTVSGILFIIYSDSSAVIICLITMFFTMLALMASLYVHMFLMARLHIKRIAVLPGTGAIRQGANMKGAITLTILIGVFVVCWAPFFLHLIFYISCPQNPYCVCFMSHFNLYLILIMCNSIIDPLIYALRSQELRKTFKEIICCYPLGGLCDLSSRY

| Compound | Max [1] [%] | IC50 [2] [nM] | Max [3] [%] | EC50 [4] [nM] |
| --- | --- | --- | --- | --- |
| COc1ccc(N2N=C(Sc3ccc(Cl)cc3)CC(CC[C@@H](C)NC(=O)[C@@H]3CNCC[C@H]3c3ccc(F)cc3)C2=O)cc1 (stereo in doubt; 61) [listing 1 of 2 here] | 32 |  |  |  |
| COc1ccc(-n2nc(Sc3ccc(Cl)cc3)cc(CC[C@@H](C)NC(=O)[C@H]3CNCC[C@@H]3c3cccc(C(F)(F)F)c3)c2=O)cc1 |  | 100 | 40 |  |
| COc1ccc(-n2nc(Sc3ccc(Cl)cc3)cc(CC[C@@H](C)NC(=O)[C@H]3CNC[C@@H]3c3ccccc3)c2=O)cc1 | 103 | 98 |  | 400 |
| COc1ccc(N2N=C(Sc3ccc(Cl)cc3)CC(CC[C@@H](C)NC(=O)[C@@H]3CCNC[C@H]3c3ccc(F)cc3)C2=O)cc1 (stereo in doubt; 65) [listing 1 of 2 here] | 33 |  |  |  |
| COc1ccc(-n2nc(Sc3ccc(Cl)cc3)cc(CC[C@@H](C)NC(=O)[C@H]3CCNC[C@@H]3Cc3ccc(F)cc3)c2=O)cc1 |  | 390 | 62 | 630 |
| COc1ccc(-n2nc(Sc3ccc(Cl)cc3)cc(CC[C@@H](C)NC(=O)[C@H]3CCNC[C@@H]3c3ccc(C#N)cc3)c2=O)cc1 | 81 | 45 |  | 120 |
| COc1ccc(-n2nc(Sc3ccc(Cl)cc3)cc(CC[C@H](C)NC(=O)[C@@H]3CNCCN3c3ccc(F)cc3)c2=O)cc1 |  | 1000 | 38 |  |
| COc1ccc(-n2nc(Sc3ccc(Cl)cc3)cc(CC[C@@H](C)NC[C@H]3CNCC[C@@H]3c3ccc(F)cc3)c2=O)cc1 | 60 | 28 |  | 470 |
| COc1ccc(-n2nc(Sc3ccc(Cl)cc3)cc(CC[C@@H](C)NC(=O)[C@H]3CNCC[C@@H]3c3cccc(F)c3)c2=O)cc1 |  | 490 | 29 |  |
| COc1ccc(-n2nc(Sc3ccc(Cl)cc3)cc(CC[C@@H](C)NC(=O)[C@H]3CCNC[C@@H]3c3ccc(Cl)cc3)c2=O)cc1 | 101 | 58 |  | 150 |
| COc1ccc(N2N=C(Sc3ccc(Cl)cc3)CC(CC[C@@H](C)NC(=O)[C@@H]3CNCC[C@H]3c3ccc(F)cc3)C2=O)cc1 (stereo in doubt; 61) [listing 2 of 2 here] |  | 690 |  | 4000 |
| COc1ccc(-n2nc(Sc3ccc(Cl)cc3)cc(CC[C@@H](C)NC(=O)[C@H]3CCNC[C@@H]3Cc3ccccc3)c2=O)cc1 |  | 750 | 36 |  |
| COc1ccc(N2N=C(Sc3ccc(Cl)cc3)CC(CC[C@@H](C)NC(=O)C3CNC[C@H]3c3ccc(F)cc3)C2=O)cc1 (single isomer, unassigned; 68) [listing 1 of 2 here] |  | 780 |  | 4000 |
| COc1ccc(-n2nc(Sc3ccc(Cl)cc3)cc(CC[C@@H](C)NC(=O)[C@H]3CNC[C@@H]3c3ccc(C)cc3)c2=O)cc1 | 67 | 28 |  | 750 |
| COc1ccc(N2N=C(Sc3ccc(Cl)cc3)CC(CC[C@@H](C)NC(=O)C3CNC[C@H]3c3ccc(F)cc3)C2=O)cc1 (single isomer, unassigned; 69) [listing 1 of 2 here] |  | 430 |  | 740 |
| COc1ccc(N2N=C(Sc3ccc(Cl)cc3)CC(CC[C@@H](C)NC(=O)[C@H]3CNCC[C@@H]3c3ccc(F)cc3)C2=O)cc1 (stereo in doubt; 25) [listing 1 of 2 here] | 72 |  |  |  |
| COc1ccc(N2N=C(Sc3ccc(Cl)cc3)CC(CC[C@@H](C)NC(=O)C3CNC[C@H]3c3ccc(F)cc3)C2=O)cc1 (single isomer, unassigned; 69) [listing 2 of 2 here] | 48 |  |  |  |
| COc1ccc(N2N=C(Sc3ccc(Cl)cc3)CC(CC[C@@H](C)NC(=O)C3CNC[C@H]3c3ccc(F)cc3)C2=O)cc1 (single isomer, unassigned; 68) [listing 2 of 2 here] | 26 |  |  |  |
| COc1ccc(-n2nc(Sc3ccc(Cl)cc3)cc(CC[C@H](C)NC(=O)[C@H]3CNCCN3c3ccc(F)cc3)c2=O)cc1 |  | 1100 | 9 |  |
| COc1ccc(-n2nc(Sc3ccc(Cl)cc3)cc(CC[C@@H](C)NC(=O)[C@H]3CNCC[C@@H]3c3ccc(C(F)(F)F)cc3)c2=O)cc1 |  | 3.8 | 24 | > 5000 |
| COc1ccc(N2N=C(Sc3ccc(Cl)cc3)CC(CC[C@@H](C)NC(=O)[C@@H]3CCNC[C@H]3c3ccc(F)cc3)C2=O)cc1 (stereo in doubt; 65) [listing 2 of 2 here] |  | 280 |  | 1400 |
| COc1ccc(-n2nc(Sc3ccc(Cl)cc3)cc(CC[C@@H](C)NC(=O)[C@H]3CNC[C@@H]3c3ccc(Cl)cc3)c2=O)cc1 | 70 | 45 |  | 230 |
| COc1ccc(N2N=C(Sc3ccc(Cl)cc3)CC(CC[C@@H](C)NC(=O)[C@@H]3CCNC[C@H]3c3ccc(F)cc3)C2=O)cc1 (stereo in doubt; 64) [listing 1 of 2 here] | 16 |  |  |  |
| COc1ccc(-n2nc(Sc3ccc(Cl)cc3)cc(CC[C@@H](C)NC(=O)[C@H]3CNCC[C@@H]3c3cccc4ccccc34)c2=O)cc1 |  | 89 | 22 |  |
| COc1ccc(N2N=C(Sc3ccc(Cl)cc3)CC(CC[C@@H](C)NC(=O)[C@H]3CNCC[C@@H]3c3ccc(F)cc3)C2=O)cc1 (stereo in doubt; 25) [listing 2 of 2 here] |  | 26 |  | 390 |
| COc1ccc(-n2nc(Sc3ccc(Cl)cc3)cc(CC[C@@H](C)NC(=O)[C@H]3CNCC[C@@H]3c3ccc(Cl)cc3Cl)c2=O)cc1 |  | 3.2 | 2 |  |

| Compound | Max [1] [%] | IC50 [2] [nM] | Max [3] [%] | EC50 [4] [nM] |
| --- | --- | --- | --- | --- |
| COc1ccc(-n2nc(Sc3ccc(Cl)cc3)cc(CC[C@@H](C)NC(=O)[C@H]3CNCC[C@@H]3c3ccccc3F)c2=O)cc1 | 58 | 13 |  | 550 |
| COc1ccc(-n2nc(Sc3ccc(Cl)cc3)cc(CC[C@@H](C)NC[C@@H]3CNCC[C@H]3c3ccc(F)cc3)c2=O)cc1 |  | 290 | 9 |  |
| COc1ccc(-n2nc(Sc3ccc(Cl)cc3)cc(CC[C@@H](C)NC(=O)[C@H]3CNCCN3c3ccc(F)cc3)c2=O)cc1 |  | 950 | 6 |  |
| COc1ccc(-n2nc(Sc3ccc(Cl)cc3)cc(CC[C@@H](C)NC(=O)[C@H]3CNCC[C@@H]3c3ccc4ccccc4c3)c2=O)cc1 |  | 17 | 12 |  |
| COc1ccc(N2N=C(Sc3ccc(Cl)cc3)CC(CC[C@@H](C)NC(=O)[C@H]3CCNC[C@@H]3c3ccc(F)cc3)C2=O)cc1 (stereo in doubt; 62) [listing 1 of 2 here] |  | 540 |  | 480 |
| COc1ccc(-n2nc(Sc3ccc(Cl)cc3)cc(CC[C@@H](C)NC(=O)[C@H]3CNCC[C@@H]3c3ccc(Cl)cc3)c2=O)cc1 | 39 | 2.4 |  | 210 |
| COc1ccc(N2N=C(Sc3ccc(Cl)cc3)CC(CC[C@@H](C)NC(=O)[C@@H]3CNCC[C@H]3c3ccc(F)cc3)C2=O)cc1 (stereo in doubt; 60) [listing 1 of 2 here] |  |  | 20 |  |
| COc1ccc(-n2nc(Sc3ccc(Cl)cc3)cc(CC[C@@H](C)NC(=O)[C@H]3CCNC[C@@H]3c3ccccc3)c2=O)cc1 | 85 |  |  |  |
| COc1ccc(-n2nc(Sc3ccc(Cl)cc3)cc(CC[C@@H](C)N(C)C(=O)C3CNCCC3c3ccc(F)cc3)c2=O)cc1 (some centres undefined) | 94 | 93 |  | 410 |
| COc1ccc(N2N=C(Sc3ccc(Cl)cc3)CC(CC[C@@H](C)NC(=O)[C@@H]3CNCC[C@H]3c3ccc(F)cc3)C2=O)cc1 (stereo in doubt; 60) [listing 2 of 2 here] |  | 560 |  |  |
| COc1ccc(-n2nc(Sc3ccc(Cl)cc3)cc(CC[C@@H](C)NC(=O)[C@H]3CN(C)CC[C@@H]3c3ccc(F)cc3)c2=O)cc1 | 59 | 4.7 |  | 320 |
| COc1ccc(-n2nc(Sc3ccc(Cl)cc3)cc(CC[C@@H](C)NC(=O)[C@H]3CNCC[C@@H]3c3ccc(C)cc3)c2=O)cc1 |  | 4.7 | 47 | 1100 |
| COc1ccc(N2N=C(Sc3ccc(Cl)cc3)CC(CC[C@@H](C)NC(=O)C3CNC[C@@H]3c3ccc(F)cc3)C2=O)cc1 (single isomer, unassigned; 66) [listing 1 of 2 here] | 90 |  |  |  |
| COc1ccc([C@H]2CNC[C@@H]2C(=O)N[C@H](C)CCc2cc(Sc3ccc(Cl)cc3)nn(-c3ccc(OC)cc3)c2=O)cc1 | 67 | 19 |  | 430 |
| COc1ccc(-n2nc(Sc3ccc(Cl)cc3)cc(CC[C@@H](C)NC(=O)[C@H]3CNC[C@@H]3c3ccccc3F)c2=O)cc1 | 82 | 160 |  | 710 |
| COc1ccc(-n2nc(Sc3ccc(Cl)cc3)cc(CC[C@@H](C)NC(=O)[C@@H]3CNCCN3c3ccc(F)cc3)c2=O)cc1 | 75 | 28 |  | 1100 |
| COc1ccc(-n2nc(Sc3ccc(Cl)cc3)cc(CC[C@@H](C)NC(=O)[C@H]3CCNC[C@@H]3c3ccccc3F)c2=O)cc1 | 75 | 100 |  | 550 |
| COc1ccc(-n2nc(Sc3ccc(Cl)cc3)cc(CC[C@@H](C)NC(=O)[C@H]3CCNC[C@@H]3c3ccc(C(F)(F)F)cc3)c2=O)cc1 | 75 | 200 |  | 710 |
| COc1ccc(-n2nc(Sc3ccc(Cl)cc3)cc(CC[C@@H](C)NC(=O)[C@H]3CNCC[C@@H]3c3ccccc3)c2=O)cc1 | 77 |  |  |  |
| COc1ccc(-n2nc(Sc3ccc(Cl)cc3)cc(CC[C@@H](C)NC(=O)[C@H]3CNC[C@@H]3c3ccc(F)cc3F)c2=O)cc1 | 81 | 60 |  | 200 |
| COc1ccc(N2N=C(Sc3ccc(Cl)cc3)CC(CC[C@@H](C)NC(=O)C3CNC[C@@H]3c3ccc(F)cc3)C2=O)cc1 (single isomer, unassigned; 66) [listing 2 of 2 here] |  | 47 |  | 1200 |
| COc1ccc(N2N=C(Sc3ccc(Cl)cc3)CC(CC[C@@H](C)NC(=O)[C@H]3CCNC[C@@H]3c3ccc(F)cc3)C2=O)cc1 (stereo in doubt; 62) [listing 2 of 2 here] | 100 |  |  |  |
| COc1ccc(-n2nc(Sc3ccc(Cl)cc3)cc(CC[C@@H](C)NC(=O)[C@H]3CNCC[C@@H]3c3cccc(Cl)c3)c2=O)cc1 | 37 | 43 |  | 680 |
| COc1ccc(N2N=C(Sc3ccc(Cl)cc3)CC(CC[C@@H](C)NC(=O)[C@@H]3CCNC[C@H]3c3ccc(F)cc3)C2=O)cc1 (stereo in doubt; 64) [listing 2 of 2 here] |  | 1300 |  | 2000 |
| COc1ccc(-n2nc(Sc3ccc(Cl)cc3)cc(CC[C@@H](C)NC(=O)[C@H]3CCNC[C@@H]3c3ccc(Cl)cc3Cl)c2=O)cc1 | 30 | 36 |  | 2400 |
| COc1ccc(-n2nc(Sc3ccc(Cl)cc3)cc(CC[C@@H](C)NC(=O)[C@H]3CNCC[C@@H]3c3ccsc3)c2=O)cc1 |  | 130 | 82 | 490 |

Reference: ChEMBL document CHEMBL1142811, “Design and syntheses of melanocortin subtype-4 receptor agonists. Part 2: discovery of the dihydropyridazinone motif” (Bioorg Med Chem Lett, 2005)
